Experimental data published in article PMC9596378, “Discovery and molecular basis of subtype-selective cyclophilin inhibitors” (Nature Chemical Biology, 2022).
Like-named read-outs stand apart in the source and are kept apart here.

Columns and labels:
PPWD1 = target: T1, PPWD1 (Homo sapiens, UniProt Q96BP3); assay: Chymotrypsin coupled prolyl-isomerase assay; assay type: biochemical; conditions: wild-type PPWD1; read-out: Wild-Type Cyclophilin Prolyl Isomerase Inhibition IC50 Values, PPWD1
T1 construct: PPWD1 (UniProtKB Entry Q96BP3: residues 473–646); host or cells: E. coli BL21(DE3)
T1 sequence (Q96BP3 473-646): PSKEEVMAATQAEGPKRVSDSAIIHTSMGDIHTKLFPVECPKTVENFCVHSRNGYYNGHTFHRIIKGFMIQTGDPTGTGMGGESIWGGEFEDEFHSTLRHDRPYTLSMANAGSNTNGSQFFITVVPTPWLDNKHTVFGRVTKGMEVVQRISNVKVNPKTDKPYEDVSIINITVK
Experimental: Five microliters of compound pre-dissolved in 5% DMSO/assay buffer was then added to appropriate wells and incubated at 2–3 °C for 5 min. Five microliters of 0.5 mM α-chymotrypsin from bovine pancreas (Type II, lyophilized powder, Millipore-Sigma) in 20% 1 mM HCl/Assay Buffer was then added to each well and incubated at 2–3 °C for 5 min. The plate was then quickly transferred to a FLIPR Tetra High-Throughput Cellular Screening System (Molecular Devices). Using the internal liquid handling system of the FLIPR, 1 µL 0.5 mM Suc-AAPF-AMC (Chymotrypsin Substrate II, Millipore-Sigma) dissolved in 0.55 M LiCl/2,2,2-trifluoroethanol was added to each well, which was then mixed for 5 s, followed by immediate fluorescence measurements every 1 s for 330 s using a 360–380 nm excitation LED module and a 400–460 nm emission filter. […] Raw fluorescence data was analyzed by non-linear regression analysis with Prism v.9 by fitting one-phase association curves to each well. Analyses were halted after the calculated maximum fluorescent value owing to observed fluorescent bleaching during the sustained fluorescent plateau. Rate constants calculated for each well (s^−1) were then normalized to substrate only (no prolyl-isomerase) and enzyme + substrate only controls.

NKTR = target: T2, NKTR (Homo sapiens, UniProt P30414); assay: Chymotrypsin coupled prolyl-isomerase assay; assay type: biochemical
T2 construct: NKTR (UniProtKB Entry P30414: residues 7–179); host or cells: E. coli BL21(DE3)
T2 sequence (P30414 7-179): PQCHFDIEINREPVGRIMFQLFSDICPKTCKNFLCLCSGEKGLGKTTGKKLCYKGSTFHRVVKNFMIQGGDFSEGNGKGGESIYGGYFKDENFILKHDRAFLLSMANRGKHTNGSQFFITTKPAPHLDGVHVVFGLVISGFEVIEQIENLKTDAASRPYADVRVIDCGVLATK

PPIL1 = target: T3, PPIL1 (Homo sapiens, UniProt Q9Y3C6); assay: Chymotrypsin coupled prolyl-isomerase assay; assay type: biochemical; conditions: wild-type PPIL1; read-out: Wild-Type Cyclophilin Prolyl Isomerase Inhibition IC50 Values, PPIL1
T3 construct: PPIL1 (UniProtKB Entry Q9Y3C6: residues 1–166); made in house; host or cells: E. coli BL21(DE3)
T3 sequence (Q9Y3C6 1-166): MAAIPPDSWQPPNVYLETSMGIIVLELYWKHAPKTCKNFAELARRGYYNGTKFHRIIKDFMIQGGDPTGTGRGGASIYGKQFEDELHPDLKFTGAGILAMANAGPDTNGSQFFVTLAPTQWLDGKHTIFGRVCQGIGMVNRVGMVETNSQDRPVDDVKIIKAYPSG
Experimental: Adapting a previously described protocol[51], with an Agilent Bravo Velocity 11 with a 384ST head, 90 µL assay buffer (25 mM HEPES pH 7.3, 100 mM NaCl, 0.01% Triton X-100) containing 5.28 nM cyclophilin was added into a flat, clear-bottom, black 384-well plate pre-chilled in a Corning CoolBox at 2–3 °C. Five microliters of compound pre-dissolved in 5% DMSO/assay buffer was then added to appropriate wells and incubated at 2–3 °C for 5 min. Five microliters of 0.5 mM α-chymotrypsin from bovine pancreas (Type II, lyophilized powder, Millipore-Sigma) in 20% 1 mM HCl/Assay Buffer was then added to each well and incubated at 2–3 °C for 5 min. […] Using the internal liquid handling system of the FLIPR, 1 µL 0.5 mM Suc-AAPF-AMC (Chymotrypsin Substrate II, Millipore-Sigma) dissolved in 0.55 M LiCl/2,2,2-trifluoroethanol was added to each well, which was then mixed for 5 s, followed by immediate fluorescence measurements every 1 s for 330 s using a 360–380 nm excitation LED module and a 400–460 nm emission filter. Final concentrations of the plate include 5 nM cyclophilin, 0.25% DMSO, 25 µM α-chymotrypsin, 5 µM Suc-AAPF-AMC. Raw fluorescence data was analyzed by non-linear regression analysis with Prism v.9 by fitting one-phase association curves to each well. Analyses were halted after the calculated maximum fluorescent value owing to observed fluorescent bleaching during the sustained fluorescent plateau. Rate constants calculated for each well (s^−1) were then normalized to substrate only (no prolyl-isomerase) and enzyme + substrate only controls. IC50 values were calculated as the value at which 50% inhibition was achieved on the non-linear regression fitted curve of each compound.

Cyp40 = Cyp40 (Homo sapiens, UniProt Q08752); assay: Chymotrypsin coupled prolyl-isomerase assay; conditions: Wild-Type Cyclophilin Prolyl Isomerase Inhibition IC50 Values, Cyp40, wild-type Cyp40
Cyp40, sequence (Q08752 1-183): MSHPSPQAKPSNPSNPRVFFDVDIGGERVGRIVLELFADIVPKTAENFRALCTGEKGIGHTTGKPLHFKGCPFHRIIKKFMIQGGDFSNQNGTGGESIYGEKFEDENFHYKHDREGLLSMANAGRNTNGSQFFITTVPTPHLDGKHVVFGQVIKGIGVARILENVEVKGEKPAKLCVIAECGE
Summary of the method: (§1)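 5 nM Cyp, HEPES pH 7.3/NaCl/Triton buffer, 2–3 °C; cpd 5 min, chymotrypsin 25 µM 5 min, then Suc-AAPF-AMC 5 µM in LiCl/TFE. Kinetic fluorescence 330 s. Per-well rate constants, normalized, IC50 from nonlinear fit.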

CypB = target: T4, CypB (Homo sapiens, UniProt P23284); assay: biochemical; conditions: wild-type CypB; read-out: Wild-Type Cyclophilin Prolyl Isomerase Inhibition IC50 Values, CypB
T4 construct: PPIB (UniProtKB Entry P23284: residues 34–216); His6 with TEV site (2BT vector leader) (N); made in house; host or cells: E. coli BL21(DE3)
T4 sequence (P23284 34-216): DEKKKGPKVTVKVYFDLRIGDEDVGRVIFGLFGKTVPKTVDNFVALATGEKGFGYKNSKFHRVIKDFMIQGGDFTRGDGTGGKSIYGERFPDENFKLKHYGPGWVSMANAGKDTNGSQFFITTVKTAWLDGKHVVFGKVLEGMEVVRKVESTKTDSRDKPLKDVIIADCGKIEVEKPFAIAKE
Summary of the method: as §1

CypD = CypD (Homo sapiens, UniProt P30405); assay: Chymotrypsin coupled prolyl-isomerase assay
CypD, sequence (P30405 45-207): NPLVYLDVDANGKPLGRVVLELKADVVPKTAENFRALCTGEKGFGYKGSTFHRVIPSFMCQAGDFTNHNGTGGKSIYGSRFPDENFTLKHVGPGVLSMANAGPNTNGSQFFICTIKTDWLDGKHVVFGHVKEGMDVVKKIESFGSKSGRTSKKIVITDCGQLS

IC50 (PPWD1): > 100 µM
IC50 (NKTR; prolyl-isomerase inhibition, 5 nM cyclophilin, read-out: IC50 NKTR): ~60 µM
IC50 (NKTR; wild-type NKTR, read-out: Wild-Type Cyclophilin Prolyl Isomerase Inhibition IC50 Values, NKTR): 60 µM
IC50 (PPIL1): 40 µM
IC50 (Cyp40): 19 µM
IC50 (CypB): 5 µM
IC50 (CypD): 17 µM
IC50 (CypD; IC50 CypD trans, trans olefin isomer): 17 ± 2 µM
IC50 (CypD; Wild-Type Cyclophilin Prolyl Isomerase Inhibition IC50 Values, CypD, wild-type CypD): 17 µM
SMILES: NCCOCCNC(=O)C1CCNC(=O)C=CC(=O)N2CCCC(C2)C(=O)NC(Cc2ccco2)C(=O)NCc2ccccc2CC(=O)N1 (stereo not drawn) [JOMBt]
